Measurements taken from article PMC11985910 (Nature Communications, 2025).
Like-named read-outs stand apart in the source and are kept apart here.

Assays:
[1] = system: λ-carrageenan-induced leucocyte infiltration and oedema; assay: Carrageenan air pouch model; format: in vivo, mouse; settings: for leucocyte influx into the air pouch at 4-h: oral SNT-8370 30, verdiperstat 15, PXS-4707 6, dexamethasone 10 mg/kg
[2] = target: native human MPO (Homo sapiens, UniProt P05164); assay: MPO-catalysed H2O2 consumption, Amplex Red assay; format: biochemical
Sequence of native human MPO (P05164 279-745): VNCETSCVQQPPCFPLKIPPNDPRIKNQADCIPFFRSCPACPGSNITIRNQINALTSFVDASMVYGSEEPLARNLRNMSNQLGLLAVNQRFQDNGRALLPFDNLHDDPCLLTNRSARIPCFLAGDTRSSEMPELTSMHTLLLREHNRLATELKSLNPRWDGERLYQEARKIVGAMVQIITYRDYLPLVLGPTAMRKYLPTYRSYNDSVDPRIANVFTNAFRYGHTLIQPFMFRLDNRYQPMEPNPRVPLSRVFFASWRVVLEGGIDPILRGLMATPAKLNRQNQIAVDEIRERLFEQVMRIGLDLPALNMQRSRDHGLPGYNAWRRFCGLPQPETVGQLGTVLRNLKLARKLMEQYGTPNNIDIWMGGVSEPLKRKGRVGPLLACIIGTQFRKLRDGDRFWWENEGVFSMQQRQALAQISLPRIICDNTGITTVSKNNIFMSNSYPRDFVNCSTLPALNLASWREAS
Sequence of native human MPO (P05164 165-273): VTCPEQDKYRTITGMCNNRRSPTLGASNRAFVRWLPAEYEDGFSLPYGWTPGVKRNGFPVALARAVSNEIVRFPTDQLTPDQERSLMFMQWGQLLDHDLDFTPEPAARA

[3] = target: T1, MPO (Homo sapiens, UniProt P05164); assay: MPO-catalysed H2O2 consumption, H2O2-specific electrode; format: biochemical
T1 sequence (P05164 279-745): as the sequence (P05164 279-745) above
T1 sequence (P05164 165-273): as the sequence (P05164 165-273) above

[4] = target: T1, MPO; assay: MPO chlorination assay; format: biochemical
[5] = target: T1, MPO; assay: MPO LDL lipid peroxidation assay; format: biochemical
[6] = target: T1, MPO; assay: MPO partition ratio assay; format: biochemical; settings: mean ± SEM, n = 3; MPO 60 nM, 2 μM H2O2
[7] = target: MAO-A, human (Homo sapiens, UniProt P21397); assay: MAO-A activity assay; format: biochemical; settings: compared to MPO or VAP-1
Sequence of MAO-A, human (P21397 whole entry): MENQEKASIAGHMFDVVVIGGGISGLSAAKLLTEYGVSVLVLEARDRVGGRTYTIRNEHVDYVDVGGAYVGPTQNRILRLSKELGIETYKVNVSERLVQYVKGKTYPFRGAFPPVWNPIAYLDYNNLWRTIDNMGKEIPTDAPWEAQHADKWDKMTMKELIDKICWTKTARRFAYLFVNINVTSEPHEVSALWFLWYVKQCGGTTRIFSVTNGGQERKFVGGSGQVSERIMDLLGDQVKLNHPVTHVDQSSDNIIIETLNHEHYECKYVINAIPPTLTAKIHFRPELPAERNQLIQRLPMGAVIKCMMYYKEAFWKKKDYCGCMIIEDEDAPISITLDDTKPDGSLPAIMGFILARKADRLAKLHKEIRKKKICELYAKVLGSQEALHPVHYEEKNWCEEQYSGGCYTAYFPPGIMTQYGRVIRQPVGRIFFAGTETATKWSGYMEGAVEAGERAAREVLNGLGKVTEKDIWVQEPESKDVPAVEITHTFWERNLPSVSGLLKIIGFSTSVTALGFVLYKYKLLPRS

[8] = target: LOX, human (Homo sapiens, UniProt P28300); assay: LOX activity assay; format: biochemical; settings: compared to MPO or VAP-1
Sequence of LOX, human (P28300 169-417): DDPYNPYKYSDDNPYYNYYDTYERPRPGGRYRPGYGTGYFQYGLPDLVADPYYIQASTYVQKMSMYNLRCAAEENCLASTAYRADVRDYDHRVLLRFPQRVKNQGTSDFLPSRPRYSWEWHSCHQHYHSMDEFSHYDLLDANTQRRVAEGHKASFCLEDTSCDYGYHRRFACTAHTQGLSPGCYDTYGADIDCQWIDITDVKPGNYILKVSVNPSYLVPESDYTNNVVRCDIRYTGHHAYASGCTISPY

[9] = system: HepG2 cells; format: cell-based; settings: tested up to 100 μM in HepG2 cells
[10] = target: recombinant human VAP-1 (Homo sapiens, UniProt Q16853); format: biochemical; settings: 30 μM, 40 min, 37 °C
Sequence of recombinant human VAP-1 (Q16853 34-763): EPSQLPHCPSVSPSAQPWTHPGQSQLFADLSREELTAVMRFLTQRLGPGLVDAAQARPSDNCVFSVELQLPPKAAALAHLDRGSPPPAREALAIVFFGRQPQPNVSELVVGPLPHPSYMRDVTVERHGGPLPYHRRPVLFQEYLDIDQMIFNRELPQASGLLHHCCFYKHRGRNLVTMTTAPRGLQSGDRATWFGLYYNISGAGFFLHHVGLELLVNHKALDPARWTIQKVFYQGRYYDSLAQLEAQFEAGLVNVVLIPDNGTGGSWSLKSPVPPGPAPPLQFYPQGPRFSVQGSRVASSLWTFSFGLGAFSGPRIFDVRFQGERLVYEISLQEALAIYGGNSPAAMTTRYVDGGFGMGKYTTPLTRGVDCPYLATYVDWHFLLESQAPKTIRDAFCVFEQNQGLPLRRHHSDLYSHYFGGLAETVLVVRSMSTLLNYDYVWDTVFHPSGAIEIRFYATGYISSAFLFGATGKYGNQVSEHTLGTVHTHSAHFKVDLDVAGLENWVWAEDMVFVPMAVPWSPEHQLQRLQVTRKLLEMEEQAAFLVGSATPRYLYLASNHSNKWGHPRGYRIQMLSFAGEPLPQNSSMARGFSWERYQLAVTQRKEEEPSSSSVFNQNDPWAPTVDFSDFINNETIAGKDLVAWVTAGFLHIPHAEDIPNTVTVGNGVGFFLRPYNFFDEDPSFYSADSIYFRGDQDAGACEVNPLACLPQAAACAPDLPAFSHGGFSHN

[11] = target: human DAO (Homo sapiens, UniProt P19801); format: biochemical; settings: 30 μM, 40 min, 37 °C
Sequence of human DAO (P19801 20-751): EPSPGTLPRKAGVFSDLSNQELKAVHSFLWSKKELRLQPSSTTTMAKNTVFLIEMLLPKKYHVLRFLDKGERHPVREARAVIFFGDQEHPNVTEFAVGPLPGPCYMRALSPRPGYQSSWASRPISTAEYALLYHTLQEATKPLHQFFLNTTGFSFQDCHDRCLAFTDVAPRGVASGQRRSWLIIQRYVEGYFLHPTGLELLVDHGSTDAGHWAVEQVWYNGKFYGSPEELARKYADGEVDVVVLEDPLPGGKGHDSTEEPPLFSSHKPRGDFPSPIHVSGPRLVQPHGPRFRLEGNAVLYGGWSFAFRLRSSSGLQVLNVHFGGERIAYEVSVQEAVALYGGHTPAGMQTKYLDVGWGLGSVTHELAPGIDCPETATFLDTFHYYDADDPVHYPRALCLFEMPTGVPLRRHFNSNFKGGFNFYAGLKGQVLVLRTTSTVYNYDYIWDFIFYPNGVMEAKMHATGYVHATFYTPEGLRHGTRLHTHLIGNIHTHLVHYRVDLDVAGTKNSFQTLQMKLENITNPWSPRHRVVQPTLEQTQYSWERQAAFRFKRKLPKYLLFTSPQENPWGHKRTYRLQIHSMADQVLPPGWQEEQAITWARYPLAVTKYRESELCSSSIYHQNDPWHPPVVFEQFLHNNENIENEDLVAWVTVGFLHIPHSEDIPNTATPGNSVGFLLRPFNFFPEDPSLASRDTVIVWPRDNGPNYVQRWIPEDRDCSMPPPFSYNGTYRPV

[12] = system: panel of 14 common transporters; format: in vitro ADME, human; settings: 30 µM; 14 targets screened
[13] = in vivo; format: in vivo, C57Bl/6J mice; settings: mouse
[14] = target: MPO (Mus musculus, UniProt P11247); assay: Acute peritonitis; format: in vivo; settings: for reduction of peritoneal MPO activity: oral 60 mg/kg; for effect on lavage fluid MPO protein concentration (ELISA): thioglycolate broth/zymosan A-treated mice
Sequence of MPO (Mus musculus, UniProt P11247) (P11247 139-718): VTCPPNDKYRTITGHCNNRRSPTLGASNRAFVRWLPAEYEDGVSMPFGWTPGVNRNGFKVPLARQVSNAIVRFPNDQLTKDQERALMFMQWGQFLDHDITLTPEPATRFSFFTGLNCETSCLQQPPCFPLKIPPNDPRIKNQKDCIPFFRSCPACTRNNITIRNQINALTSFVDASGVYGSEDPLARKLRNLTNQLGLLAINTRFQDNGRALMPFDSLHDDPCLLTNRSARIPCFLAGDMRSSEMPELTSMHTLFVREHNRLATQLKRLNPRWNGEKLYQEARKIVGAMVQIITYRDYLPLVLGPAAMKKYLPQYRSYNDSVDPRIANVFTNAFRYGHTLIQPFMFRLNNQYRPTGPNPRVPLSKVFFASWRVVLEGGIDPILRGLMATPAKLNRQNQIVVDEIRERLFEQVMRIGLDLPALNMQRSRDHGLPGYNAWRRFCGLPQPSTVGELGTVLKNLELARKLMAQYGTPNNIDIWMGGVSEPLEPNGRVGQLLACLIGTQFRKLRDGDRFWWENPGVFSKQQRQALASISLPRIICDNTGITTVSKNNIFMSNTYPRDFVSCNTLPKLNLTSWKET

[15] = system: thioglycolate broth-induced peritoneal leucocyte infiltration; assay: Peritonitis leucocyte trafficking model; format: in vivo, mouse; settings: 6 h; oral SNT-8370 60, verdiperstat 60, PXS-4707 6 mg/kg
[16] = target: VAP-1 (Mus musculus, UniProt O70423); assay: VAP-1 activity in adipose tissue; format: in vivo; settings: 6 h; oral SNT-8370 60 mg/kg, PXS-4707 6 mg/kg
Sequence of VAP-1 (O70423 whole entry): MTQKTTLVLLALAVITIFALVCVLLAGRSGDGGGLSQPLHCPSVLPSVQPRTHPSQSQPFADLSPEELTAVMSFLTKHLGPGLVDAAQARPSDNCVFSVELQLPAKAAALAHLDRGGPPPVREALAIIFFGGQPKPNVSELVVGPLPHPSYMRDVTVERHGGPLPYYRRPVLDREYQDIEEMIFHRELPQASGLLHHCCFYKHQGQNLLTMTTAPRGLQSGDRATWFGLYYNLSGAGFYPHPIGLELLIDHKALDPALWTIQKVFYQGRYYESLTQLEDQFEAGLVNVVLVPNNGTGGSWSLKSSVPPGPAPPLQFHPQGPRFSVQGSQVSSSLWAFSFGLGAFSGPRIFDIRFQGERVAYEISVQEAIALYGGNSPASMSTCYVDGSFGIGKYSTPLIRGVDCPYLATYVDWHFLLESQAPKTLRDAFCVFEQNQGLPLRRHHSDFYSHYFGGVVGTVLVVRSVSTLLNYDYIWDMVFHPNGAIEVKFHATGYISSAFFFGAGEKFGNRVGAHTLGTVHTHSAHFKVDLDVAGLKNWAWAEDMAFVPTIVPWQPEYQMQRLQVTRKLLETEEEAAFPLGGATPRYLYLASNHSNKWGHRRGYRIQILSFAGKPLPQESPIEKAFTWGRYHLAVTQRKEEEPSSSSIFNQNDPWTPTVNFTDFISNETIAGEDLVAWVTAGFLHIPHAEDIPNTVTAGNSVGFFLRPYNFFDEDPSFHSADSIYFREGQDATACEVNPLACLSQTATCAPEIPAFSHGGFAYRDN

[17] = system: LPS-induced lung leucocyte infiltration; assay: Acute lung injury; format: in vivo, mouse; settings: 6 h post-LPS; oral SNT-8370 30, verdiperstat 30, PXS-4707 10 mg/kg
[18] = system: myocardial ischaemia/reperfusion injury; assay: Myocardial infarction; format: in vivo, rat; settings: 60 mg/kg oral twice daily, 4 weeks
[19] = system: panel of 68 enzymes, receptors, ion channels and transporters; settings: 10 µM; 68 targets screened
[20] = for drug concentration in peritoneal lavage fluid: 5 h after gavage
[21] = SNT-8370 30, verdiperstat 15, PXS-4707 6, dexamethasone 10 mg/kg

## C[C@@H]1C[C@H]2[C@@H]3CCC4=CC(=O)C=C[C@]4(C)[C@@]3(F)[C@@H](O)C[C@]2(C)[C@@]1(O)C(=O)CO [dexamethasone]
[1]; [21]
  air pouch exudate volume at 12-h: significantly reduced
[1]
  leucocyte influx into the air pouch at 4-h: significantly reduced

## NC/C(=C\F)COc1cccc(Cn2c(=S)[nH]c(=O)c3[nH]cnc32)c1 [SNT-8370, (E)-3-(3-((2-(aminomethyl)-3-fluoroallyl)oxy)benzyl)-2-thioxo-1,2,3,7-tetrahydro-6H-purin-6-one]
[2]
  MPO IC50 more potent than AZD5904: ~ 3 fold
  MPO IC50 more potent than verdiperstat: ~ 2 fold
[3]
  fold lower IC50 than verdiperstat or PF06282999, H2O2 consumption: 5-8 fold
[4]
  fold lower IC50 than verdiperstat or PF06282999, HOCl production: 2–5 fold
[5]
  IC50: 20 nM
  fold lower IC50 than verdiperstat, LDL lipid peroxidation: 30 fold
[6]
  partition ratio for MPO inhibition: 15.7 ± 2.4
[7]
  selectivity index over MAO-A: > 1000 fold
[8]
  selectivity index over LOX: > 1000 fold
[9]
  Cell health (cytotoxicity): no toxicity
[10]
  Substrate turnover, VAP-1: No oxidative turnover
[11]
  Substrate turnover, DAO: no turnover observed
[12]
  Eurofins Transporter screen, hits (>50% inhibition): no significant inhibition
[13]; C57Bl/6J, in vivo, po
  half-life: 2 to 4 h
[13]
  time of highest drug concentrations after oral gavage: 1 h
[13]; oral gavage
  drug in the brain: No drug was detectable
[14]; oral 10 mg/kg
  effect on peritoneal MPO activity: no effect
[14]; oral 30 mg/kg
  effect on peritoneal MPO activity: no effect
[14]
  reduction of peritoneal MPO activity: > 50%
  effect on lavage fluid MPO protein concentration (ELISA): no effect
[15]
  neutrophils in the peritoneum: significantly reduced
  total immune cells (leucocytes) in the peritoneum: significantly reduced
[16]
  inhibition of in vivo VAP-1 activity in adipose tissue: > 90%
[1]; SNT-8370 10 mg/kg
  air pouch exudate volume at 12-h: significantly reduced
[1]; [21]
  air pouch exudate volume at 12-h: significantly reduced
[1]
  leucocyte influx into the air pouch at 4-h: significantly reduced
[17]
  lung infiltration of neutrophils (BALF): significantly reduced
  lung infiltration of total leucocytes (BALF): significantly reduced
[18]
  cardiac fibrosis (picrosirius red, Masson's trichrome, periostin): significantly reduce
  ejection fraction post-MI: prevented the significant post-MI reduction
  fractional shortening post-MI: prevented the significant post-MI reduction
[19]
  Eurofins PanLabs screen, hits (>50% inhibition): No significant off-targets
[20]; oral 10 mg/kg
  drug concentration in peritoneal lavage fluid: 1.1 ng/mL
[20]; oral 30 mg/kg
  drug concentration in peritoneal lavage fluid: 1.5 ng/mL
[20]; oral 60 mg/kg
  drug concentration in peritoneal lavage fluid, molar equivalent: 170 nM
  drug concentration in peritoneal lavage fluid: ~ 60 ng/mL
[20]; oral 10 and 30 mg/kg
  drug concentration in peritoneal lavage fluid, molar equivalent: < 4 nM

## CC(C)OCCn1c(=S)[nH]c(=O)c2[nH]ccc21 [Verdiperstat, reference compound]
[5]
  IC50: 600 nM
[14]
  reduction of peritoneal MPO activity: > 50%
  effect on lavage fluid MPO protein concentration (ELISA): no effect
[15]
  neutrophils in the peritoneum: Neither of the monotherapy treatments showed a significant effect
  total immune cells (leucocytes) in the peritoneum: Neither of the monotherapy treatments showed a significant effect
[1]; [21]
  air pouch exudate volume at 12-h: neither verdiperstat nor PXS-4707, significantly reduced
[1]
  leucocyte influx into the air pouch at 4-h: significantly reduced
[17]
  lung infiltration of neutrophils (BALF): non-significant downward trends
  lung infiltration of total leucocytes (BALF): non-significant downward trends
[20]; oral 60 mg/kg
  drug concentration in peritoneal lavage fluid: > 10 ng/mL
